The test system of one data set is MDR1 P-glycoprotein mRNA. Description: Northern blot of MDR1 P-glycoprotein expression (Example VI). An excerpt: FIG. 31 depicts MDR1 gene expression in LS174T cells as analyzed by Northern blot. […] Total RNA from the colon adenocarcinoma cell line LS174T was isolated and fractionated on a 1% formaldehyde gel and transferred onto a nylon membrane. The RNA blot was hybridized to ^32P-labeled MDR1 cDNA probe (top panel) or 18s rRNA probe for normalization of RNA loading on the gel (bottom panel).
(§1) FIG. 32A: Lanes 1 and 2, primary human hepatocytes; lanes 3 and 4, LS174T cells. FIG. 32B: Lanes 1 and 2, HepG2 cells; lanes 3 and 4, HepG2 that overexpress PXR (Hepg-PXR cells). FIG. 32C: Lanes 1 and 2, Caco-2; lanes 3 and 4, Caco-2 cells that overexpress PXR (Caco-PXR cells).
(§2) Total RNA from the colon adenocarcinoma cell line LS174T was isolated and fractionated on a 1% formaldehyde gel and transferred onto a nylon membrane. The RNA blot was hybridized to ^32-P-labeled MDR1 cDNA probe (top panels), ^32-P-labeled CYP3A4 cDNA probe (middle panels), or 18s rRNA probe for normalization of RNA loading on the gel (bottom panels).
(§3) FIG. 37 depicts MDR1 gene regulation in response to chrysin as studied by Northern blot analysis. […] Total RNA from the hepatocytes was isolated and fractionated on a 1% formaldehyde gel and transferred onto a nylon membrane. The RNA blot was hybridized to ^32-P-labeled MDR1 cDNA probe (top panels), ^32P-labeled CYP3A4 cDNA probe (middle panels), or 18s rRNA probe for normalization of RNA loading on the gel (bottom panels).
Northern Blot analysis for MDR1 P-glycoprotein and CYP3A4 expression: Total RNA was prepared from cells (primary hepatocytes, LS174T, HepG2, or Caco-2) using Trizol reagent (Invitrogen, Carlsbad, Calif.). For Northern blots, 15 micrograms of total RNA was fractionated on a 1% formaldehyde gel and transferred onto a nylon membrane by capillary transfer. A 530-base pair fragment of MDR1 cDNA was obtained from PCR cloning using the sense primer […] The resulting fragment was ^32P-labeled by random priming (Invitrogen, Carlsbad, Calif.) for use as an MDR1 probe. […] All constructs and cDNAs were subjected to sequence analysis. Hybridization was performed with the ExpressHyb system according to the manufacturer's instructions (Clontech, Palo Alto, Calif.).

The subject of data set [1] is PXR / mdr1(dr4) response element. Description: Transient transfection mdr1(dr4)-Luc reporter assay with PXR. The following applies: Caco-2 cells transiently co-transfected with mdr1(dr4)-Luc and PXR; 48 hours. On the technique in general: A reporter such as luciferase makes a cellular process visible.
For data set [2], the system named is CYP3A4 mRNA (PXR).
Another data set deals with CYP3A4 mRNA. The following applies: human, 48 h, 25 µM.
From the text: as §1, §2, §3
Northern Blot analysis for MDR1 P-glycoprotein and CYP3A4 expression: Total RNA was prepared from cells (primary hepatocytes, LS174T, HepG2, or Caco-2) using Trizol reagent (Invitrogen, Carlsbad, Calif.). […]

Data set [3] concerns AhR (dioxin response elements). Put plainly: in vitro. Particulars: human, fold induction of luciferase activity above DMSO, DRE12-6 cells, 28 hours; TCDD 10 nanomoles per liter, omeprazole 25, 2-AAF 100, DMBA 20 micromoles per liter.
The test system of data set [4] is PXR / mdr1(dr4) response element. Description: Hep-PXR/Pgp-Luc stable cell luciferase assay. The procedure:
(§4) FIG. 35 depicts dose-response behavior to various PXR activators in stable cell lines overexpressing PXR and harboring DR4 response element. FIG. 35A: Results are shown for the stable cell line Hep-PXR/PgpLuc. FIG. 35B: Results are shown for the stable cell line Caco-PXR/PgpLuc.
(§5) Cells were exposed to the test compounds for 48 hours at the concentrations indicated.
FIG. 36 depicts the effect of environmental and botanical chemicals on luciferase activity in the stable cell line Hep-PXR/PgpLuc. Cells were inoculated into 96-well plates at a density of 2×10^4 cells per well. After overnight recovery, cells were treated with the test compounds at the concentrations indicated for 48 hours.
(§6) Establishment of stable transformants containing both PXR and reporter plasmid and development of high throughput bioassay for PXR-dependent transactivation: The stable transformants Hep-PXR/mdr1(dr4)-Luc and Caco-PXR/mdr1(dr4)-Luc cell lines were generated from the parental cell lines HepG-PXR and Caco-PXR, respectively, according to the following procedure. The parental cell lines HepG-PXR and Caco-PXR, which overexpress PXR, were stably transfected with the luciferase reporter plasmid mdr1(dr4)-Luc. The transfected cells were cultured in DMEM (HepG-PXR cells) or in IMEM (Caco-PXR cells), both media supplemented with 10% fetal bovine serum and neomycin (700 micrograms per milliliter).
(§7) For the induction assay, stable transformants were seeded in 96-wells plates at a density of 1×10^4 cells per well and allowed to recover overnight. Plates were treated with test compounds at varying concentrations, using 3 replicates per dose. After 48 hours of exposure to the test compound, cells were washed with phosphate buffered saline, lysis buffer was applied to the wells, and luciferase substrate added. Following 10 minutes for light adaptation, luminescence was monitored according to the manufacturer's instructions (Packard kit, Biomed).

Data set [5] has the same test system. Put plainly: Caco-PXR/Pgp-Luc stable cell luciferase assay. The procedure:
as §4, §5, §6, §7

For data set [6], the system named is CYP3A4 mRNA (PXR). Put plainly: Northern blot of CYP3A4 in stable cells overexpressing PXR (Hepg-PXR). Particulars: stable cells that overexpress PXR.
Data set [7] deals with PXR / mdr1(dr4) response element. The following applies: human, 48 h.

Where two headings read alike, the source gives them in different places.

Consider `CC(=O)[C@H]1[C@H](C#N)C[C@H]2[C@@H]3CC=C4C[C@@H](O)CC[C@]4(C)[C@H]3CC[C@@]21C` [PCN, pregnenolone 16 alpha-carbonitrile], for which the “MDR1 expression in LS174T cells (in words)” value in the data set with MDR1 P-glycoprotein mRNA (LS174T cells, 48 hours) was “only a slightly increase”. Also, the “fold increase in luciferase activity above DMSO, single concentrations (FIG. 14)” value in the data set on hPXR / CYP3A4 enhancer is recorded as “less than two”. The “fold increase in luciferase activity above DMSO, single concentrations (FIG. 15)” value with CYP3A4 enhancer (PXRE) is “less than one”. Besides, the “fold increase in luciferase activity” value in data set [1] is on record as “only a minor increase”. In the data set with CYP3A4 mRNA (PXR) [2], the “CYP3A4 induction by Northern blot (in words)” value is on record as “not”.
The fold induction is the ratio of treated to control signal. The low end stands for a weak induction, the high end for a strong induction. With `O=c1cc(-c2ccccc2)oc2cc(O)cc(O)c12` [chrysin], in the data set on CYP3A4 mRNA, the “CYP3A4 expression in primary hepatocytes (in words)” value was “induce the expression of both MDR1 and CYP3A4”. The “MDR1 P-glycoprotein expression in primary human hepatocytes (in words)” value in the data set on MDR1 P-glycoprotein mRNA (human, 48 h, 25 µM) is “induce the expression of both MDR1 and CYP3A4”. In addition, in data set [3], the fold induction turned out to be 4.2. Also, the “fold increase in luciferase activity” value in data set [4] (human, 48 h) was determined as 5 fold.
Take `CC[C@H](C)C(=O)O[C@H]1CCC=C2C=C[C@H](C)[C@H](CC[C@@H]3C[C@@H](O)CC(=O)O3)[C@H]21` [mevastatin]: the “dose dependence of luciferase induction (in words)” value in data set [5] and in data set [4] was “dose-dependent luciferase induction” throughout. Also, the “strength of luciferase induction (in words)” value in data set [5] is on record as “strongly induce”. The “CYP3A4 induction by Northern blot (in words)” value with CYP3A4 mRNA (PXR) [6] is “efficiently activated”.
For `COc1ccc2[nH]c([S+]([O-])Cc3ncc(C)c(OC)c3C)nc2c1` (stereo not shown) [omeprazole], the “fold increase in luciferase activity” value in data set [7] is 3-6 fold. Besides, the “dose dependence of luciferase induction (in words)” value in data set [5] and in [4] was “dose-dependent luciferase induction” throughout.

Values taken from patent publication US20040077080A1, “Compositions and methods for induction of proteins involved in xenobiotic metabolism” (priority 2000, published 2004).
